According to ChEMBL document CHEMBL3507680, “University of Dundee, Gates Library screen for HepG2 cell viability”:

Assay: Human HepG2 cell viability assay in 384 well format
Type: toxicity, cell-based
Parameters: dose 125 nL, time 70.5 hour; cytotoxicity at 70.5 h: concentration not given beside the values
Conditions: HepG2 cells, read-out: Inhibition

| Compound | cytotoxicity at 70.5 h |
| --- | --- |
| CCOCCN1C[C@H](c2cccc(OC)c2)[C@@H](N)C1 | -4.15% |
| c1cnc(N2CCCC(c3csc(Nc4cnccn4)n3)C2)nc1 (centres undefined) | 19.8% |
| CCOc1cc(CN[C@@H]2COC[C@H]2Cc2cc(C)no2)ccc1O | -2.12% |
| COc1cc(N2CCCC3(CCN(c4cccnc4)C3=O)C2)ncn1 (centres undefined) | 19.9% |
| CCC(CC)c1cc(C(=O)N2CCCC(n3cncn3)C2)on1 (centres undefined) | -1.84% |
| Cc1cc(CN2CCOC(Cn3nc(C)cc3C)C2)on1 (centres undefined) | -5.48% |
| CCN1C[C@H]2CCN(C(=O)Nc3ccccc3C)CC[C@H]2S1(=O)=O | 15.6% |
| O=c1oc(-c2ccc(F)cc2)nn1CCc1ccncc1 | -9.83% |
| Cc1ccc(C(=O)N2CCC(n3cc(CO)nn3)CC2)cn1 | 11% |
| COCc1n[nH]/c(=N/C(=O)COc2cnc(C)cc2O)s1 | -9.66% |
| CC[C@H](N)C(=O)Nc1nn(CC(F)(F)F)c2cc(OC(C)C)ccc12 | -14.2% |
| CCc1ccccc1CN1CC[C@@H](NC(=O)c2cccnc2)[C@H](O)C1 | 1.15% |
| CN(Cc1ccsc1)C(=O)CN1CCOC(Cn2cncn2)C1 (centres undefined) | -1.49% |
| CCC[C@H]1CN(CCS(C)(=O)=O)C[C@@H]1NC(=O)c1ccccn1 | -5.77% |
| C=C1C(C)(C)[C@H]2CC[C@]1(C(=O)N1CCC(Cn3cc(CO)nn3)CC1)C2 | 26.1% |
| CN(C)C[C@@H]1C[C@@H]2CN(C(=O)Cc3cccs3)CC[C@@H]2N1C | 13.4% |
| Cc1cc(C(=O)N2CCN(c3nc4c(F)cccc4s3)CC2)no1 | -7.99% |
| CN1CCC/C1=N\S(=O)(=O)c1ccc(NC(=O)c2ccc(Cl)s2)cc1 | -18.3% |
| O=C(NCc1ccc2c(c1)OCO2)c1ccc(N2CCCCCC2)nc1 | 2.76% |
| OC(CN(Cc1ccccc1)Cc1ccon1)c1ccco1 (centres undefined) | -7.07% |
| NC(=O)C(NC1CCN(CC2CCCCC2)CC1)c1ccccc1 (centres undefined) | -4.82% |
| COc1ccc(CN2C[C@H]3C[C@H](C(=O)Nc4cccnc4)[C@@H](C2)O3)cc1 | -3.51% |

| Compound | cytotoxicity at 70.5 h |
| --- | --- |
| CCCc1noc(CN2CCCC2c2noc(C3CC3)n2)n1 (centres undefined) | -4.28% |
| Cc1cc(C(=O)N2CCN(Cc3ccsc3)CC2)n(C)n1 | -14.3% |
| CN1CCOC(CNCc2nc(-c3cccnc3)no2)C1 (centres undefined) | -6.13% |
| CC(C)CCN1CCN(C(=O)c2c[nH]nn2)CC1 | 14% |
| Cc1ccsc1C(=O)N1CCCC(c2[nH]ncc2S(C)(=O)=O)C1 (centres undefined) | -6.4% |
| CCc1cc(N2CCC(NC3CCOCC3)CC2)nc(N(C)C)n1 | 25.7% |
| O=S(=O)(c1cn[nH]c1)N1CCC(O)(CN2CCC(F)(F)CC2)C1 (centres undefined) | 1.83% |
| CC(O)c1cccc(OCc2ccon2)c1 (centres undefined) | -2.61% |
| O=C(CN1CCOC(Cn2cccn2)C1)NCc1cccs1 (centres undefined) | -8.73% |
| CC(Cn1cccn1)NC(=O)N1CCN(Cc2ccncc2)CC1 (centres undefined) | -5.78% |
| Cc1oc(-c2ccsc2)nc1CNCCn1cccn1 | -5.13% |
| Cc1cc(CN2CCN(C(=O)NCc3ccc(C)s3)CC2)no1 | -27.6% |
| Cc1cc(C[S+]([O-])CC(=O)NCc2cccc(Cl)c2)no1 (centres undefined) | -10.3% |
| Cc1cccc(CN2CCCC(c3nccs3)C2)n1 (centres undefined) | -1.28% |
| CC(=O)N1CC[C@H]2OCC[C@@]2(C(=O)NCCc2ccccn2)C1 | 4.18% |
| O=C(NCC(=O)N1CCc2ccccc2C1)c1cnccn1 | -6.74% |
| COc1ccc(OC)c(C(=O)N2CCC(Nc3cccnc3)CC2)c1 | -0.864% |
| Fc1ccc(CN2CCC(c3n[nH]c4ncccc34)CC2)cc1F | 22.2% |
| CCc1nnc(SCC(=O)N2CCc3[nH]nc(C4CCC4)c3C2)o1 | -2.31% |
| O=C(Nc1c(F)cccc1Oc1ccccc1)C1CCS(=O)(=O)C1 (centres undefined) | -1.02% |
| CC(NCCCn1ccnc1)c1ccc(N2CCOC2=O)cc1 (centres undefined) | 16.7% |
| CCC(C)NC(=O)c1cc(S(N)(=O)=O)c(Br)s1 (centres undefined) | -6.88% |
